# According to patent US20260308152A1, “METHODS OF MAKING 2-AMINO-1-(3-HYDROXY-2,6-DIMETHYLPHENYL)-5,6-DIMETHYL-1H-PYRROLO-[2,3-B]PYRIDINE-3-CARBOXAMIDE, A MYT1 INHIBITOR” (Repare Therapeutics Inc., priority 2022, published 2026):
# Marks after values point to notes of the source that are not given here.
# What was measured:
# Assay type in all cases: physicochemical
# [1] = Chiral acid salt screen: approximate solubility of starting material in solvents; details: ambient temperature, 3 days
# Procedure: INT 1f salts (50-60 mg) were weighed into 4 ml vials. Solvent (~0.2-1.0 mL) was added to each vial, and the vials were stirred at ambient temperature for 3 days. Additional solvent was added to vials with thick slurries, and additional salts were added to vials with clear solutions.
# In this example, the resolution of INT 1g and Compound 1 via chiral salts is summarized.
# [2] = Solubility in anisole at various temperatures
# From the text: The solubility of racemic INT 1f (recrystallized from anisole) in anisole at various temperatures was investigated (Table 28).
# The solubility of (S)-INT 1f/(R)-CSA salt in anisole at various temperatures was also investigated
# [3] = Solubility of INT 1b in organic solvents; details: most organic solvents (FIG. 1)
# From the text: FIG. 1 is a graph illustrating the solubility of INT 1b in organic solvents, including heptane, toluene, xylenes, isopropyl acetate (IPAc), ethyl acetate (EtOAc), methyl ethyl ketone (MEK), methyl t-butyl ether (MTBE), dichloromethane (DCM), methanol (MeOH), ethanol (EtOH), isopropanol (iPrOH), acetonitrile (MeCN), water, 5 M H2SO4, and 1 M H2SO4.
# [4] = Aromatic solvent screen: solubility of INT 1f/(R)-CSA salt
# From the text: Following the encouraging result employing anisole as the solvent and switching to (R)-CSA to afford the desired diastereomer, the following common aromatic solvents were screened: 1,3-dimethoxybenzene;
# 2-, 3-, and 4-methyanisoles; o, m, and p-xylenes; and α,α,α-trifluorotoluene (Table 18). […] In addition to anisole, 4-methylanisole and 1,3-dimethoxybenzene also afforded enantioenriched crystalline solids with enantiomeric ratios (e.r.) of 90:10 and 87:13, respectively. However, the highest e.r. was obtained with anisole (92:8).
"Approximate Solubility of Starting Material ([1]; 1,4-Dioxane)",Approximate Solubility of Starting Material ([1]; Acetone:water (9:1)),Approximate Solubility of Starting Material ([1]; Anisole),Approximate Solubility of Starting Material ([1]; DCM),Approximate Solubility of Starting Material ([1]; EtOAc),Approximate Solubility of Starting Material ([1]; EtOH:Heptane (1:1)),Approximate Solubility of Starting Material ([1]; EtOH),Approximate Solubility of Starting Material ([1]; MeCN),Approximate Solubility of Starting Material ([1]; THF),Approximate Solubility of Starting Material ([1]; Toluene),Compound,other results
Soluble,Soluble,Very soluble,Highly soluble,Highly soluble,Soluble,Very soluble,Very soluble,Highly soluble,Very soluble,COc1ccc(C)c(-n2c(N)c(C#N)c3cc(C)c(C)nc32)c1C.O=P1(O)Oc2c(-c3c(C4CCCCC4)cc(C4CCCCC4)cc3C3CCCCC3)cc3ccccc3c2-c2c(c(-c3c(C4CCCCC4)cc(C4CCCCC4)cc3C3CCCCC3)cc3ccccc23)O1 [INT 1f/(S)-TCYP],
Highly soluble,Very soluble,Very soluble,Highly soluble,Soluble,Soluble,Very soluble,Soluble,Highly soluble,Very soluble,COc1ccc(C)c(-n2c(N)c(C#N)c3cc(C)c(C)nc32)c1C.O=P1(O)Oc2ccc3ccccc3c2-c2c(ccc3ccccc23)O1,
,Soluble,,Partially soluble,,,Soluble,,,,Cc1cc2c(C(N)=O)c(N)n(-c3c(C)ccc(O)c3C)c2nc1C [Compound 1/Acid h],
Highly soluble,Soluble,Soluble,Highly soluble,Soluble,Soluble,Soluble,Soluble,Highly soluble,Soluble,"COc1ccc(C)c(-n2c(N)c(C#N)c3cc(C)c(C)nc32)c1C.O=C(O[C@H](C(=O)O)[C@H](OC(=O)c1ccccc1)C(=O)O)c1ccccc1 [INT 1f/(+)-2,3-Dibenzoyl-D-tartaric Acid]",
Soluble,Highly soluble,Very soluble,Very soluble,Soluble,Soluble,Very soluble,Highly soluble,Very soluble,Highly soluble,CC1(C)C2CC[C@@]1(CS(=O)(=O)O)C(=O)C2.COc1ccc(C)c(-n2c(N)c(C#N)c3cc(C)c(C)nc32)c1C [INT 1f/(S)-CSA],
Very soluble,Soluble,Soluble,Very soluble,Soluble,Soluble,Soluble,Soluble,Very soluble,Soluble,COc1ccc(C)c(-n2c(N)c(C#N)c3cc(C)c(C)nc32)c1C.Cc1ccc(C(=O)O[C@H](C(=O)O)[C@H](OC(=O)c2ccc(C)cc2)C(=O)O)cc1,
,,,,,,,,,,"COc1ccc(C)c(-n2c(N)c(C#N)c3cc(C)c(C)nc32)c1C (racemic) [INT 1f, 2-Amino-1-(3-methoxy-2,6-dimethylphenyl)-5,6-dimethyl-1H-pyrrolo[2,3-b]-pyridine-3-carbonitrile]","Solubility in anisole ([2]; racemic, crystal form recrystallized from anisole, 25° C.): 14.01 mg/mL; Solubility in anisole ([2]; racemic, crystal form recrystallized from anisole, 30° C.): 17.72 mg/mL; Solubility in anisole ([2]; racemic, crystal form recrystallized from anisole, 40° C.): 21.26 mg/mL; Solubility in anisole ([2]; racemic, crystal form recrystallized from anisole, 50° C.): 25.99 mg/mL; Solubility in anisole ([2]; racemic, crystal form recrystallized from anisole, 60° C.): 46.5 mg/mL"
,,,,,,,,,,Cc1cc(Br)c(=O)[nH]c1C [INT 1b],solubility in most organic solvents [3]: poor solubility
,Soluble,Soluble,Partially soluble,,Soluble,Partially soluble,Partially soluble,Soluble,,Cc1cc2c(C(N)=O)c(N)n(-c3c(C)ccc(O)c3C)c2nc1C [Compound 1/Acid f],
,,,,,,,,,,CC1(C)C2CC[C@]1(CS(=O)(=O)O)C(=O)C2.COc1ccc(C)c(-n2c(N)c(C#N)c3cc(C)c(C)nc32)c1C [INT 1f/(R)-CSA],"solubility ([4]; 1,3-dimethoxybenzene and anisole): high solubility; solubility ([4]; 2-, 3-, 4-methyanisole with heating): good solubility; solubility ([4]; other aromatic solvents (xylenes, α,α,α-trifluorotoluene)): poor solubility"
,,Partially soluble,Partially soluble,,Partially soluble,,,,,Cc1cc2c(C(N)=O)c(N)n(-c3c(C)ccc(O)c3C)c2nc1C [Compound 1/Acid d],
Highly soluble,Highly soluble,Very soluble,Highly soluble,Very soluble,Soluble,Soluble,Soluble,Highly soluble,Highly soluble,CC(C)c1cc(C(C)C)c(-c2cc3ccccc3c3c2OP(=O)(O)Oc2c(-c4c(C(C)C)cc(C(C)C)cc4C(C)C)cc4ccccc4c2-3)c(C(C)C)c1.COc1ccc(C)c(-n2c(N)c(C#N)c3cc(C)c(C)nc32)c1C [INT 1f/(S)-TRIP],
Highly soluble,Highly soluble,Soluble,Highly soluble,Very soluble,Highly soluble,Very soluble,Highly soluble,Highly soluble,Soluble,CC1(C)C2CCC1(CS(=O)(=O)O)C(=O)C2Br.COc1ccc(C)c(-n2c(N)c(C#N)c3cc(C)c(C)nc32)c1C.O,
,,,,,,,,,,"CC1(C)[C@H]2CC[C@]1(CS(=O)(=O)O)C(=O)C2.COc1ccc(C)c(-n2c(N)c(C#N)c3cc(C)c(C)nc32)c1C [(S)-INT 1f/(R)-CSA, (S)-2-Ammonium-1-(3-methoxy-2,6-dimethylphenyl)-5,6-dimethyl-1H-pyrrolo[2,3-b]-pyridine-3-carbonitrile/(R)-CSA]","Solubility in anisole ([2]; salt, 21° C.): 2.39 mg/mL; Solubility in anisole ([2]; salt, 30° C.): 3.78* mg/mL; Solubility in anisole ([2]; salt, 40° C.): 3.37 mg/mL; Solubility in anisole ([2]; salt, 50° C.): 4.20 mg/mL; Solubility in anisole ([2]; salt, 60° C.): 7.29 mg/mL"
